# From patent US11098032B2, “Pyran dervatives as CYP11A1 (cytochrome P450 monooxygenase 11A1) inhibitors” (ORION CORPORATION, priority 2016, dated 2021)
# Biological target: T1, CYP11A1 (Homo sapiens, UniProt P05108)
# T1 construct: human H295R adrenocortical carcinoma cell line was used as source of enzyme; endogenous in cells; host or cells: H295R human adrenocortical carcinoma cells
# T1 sequence (P05108 40-521): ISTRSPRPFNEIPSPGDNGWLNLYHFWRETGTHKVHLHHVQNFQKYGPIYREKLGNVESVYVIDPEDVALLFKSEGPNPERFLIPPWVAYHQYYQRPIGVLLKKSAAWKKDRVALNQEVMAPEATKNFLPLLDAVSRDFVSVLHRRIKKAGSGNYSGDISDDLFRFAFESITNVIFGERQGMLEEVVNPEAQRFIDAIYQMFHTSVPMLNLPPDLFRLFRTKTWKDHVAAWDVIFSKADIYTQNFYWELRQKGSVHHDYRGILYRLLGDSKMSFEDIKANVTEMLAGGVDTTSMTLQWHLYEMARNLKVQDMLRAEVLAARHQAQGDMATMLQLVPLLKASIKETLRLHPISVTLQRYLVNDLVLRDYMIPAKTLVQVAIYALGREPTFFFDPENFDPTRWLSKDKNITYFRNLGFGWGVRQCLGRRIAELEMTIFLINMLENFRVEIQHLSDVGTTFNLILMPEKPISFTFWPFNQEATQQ
# Assay: CYP11A1 inhibition: modified isocaproic acid release assay (IARA) in H295R cells
# Assay type: cell-based
# Conditions: human H295R adrenocortical carcinoma cells treated three days, 3 nM [24,25-3H]-labelled cholesterol, 1% DMSO, 10 concentrations in duplicates; read-out: IC50 of the test compounds on CYP11A1 inhibition
# How it was run: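 Cholesterol side-chain cleavage followed as tritiated isocaproic acid in charcoal-extracted medium, counted by scintillation. Substrate was 3 nM [24,25-3H]-cholesterol on human H295R cells exposed for three days to ten compound concentrations (duplicates, 1% DMSO); IC50 derived.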
row,IC50 [nM],SMILES
1,301 to 2000,"O=C(NC1CCSC1=O)c1ccc(COc2coc(CN3Cc4ccccc4C3)cc2=O)cc1 (centres unmarked) [Compound 96, 4-(((6-(Isoindolin-2-ylmethyl)-4-oxo-4H-pyran-3-yl)oxy)methyl)-N-(2-oxotetra-hydrothiophen-3-yl)benzamide]"
2,150 to 300,"CCN=S(C)(=O)c1ccc(COc2coc(CN3Cc4ccccc4C3)cc2=O)cc1 (centres unmarked) [Compound 97, 5-((4-(N-Ethyl-S-methylsulfonimidoyl)benzyl)oxy)-2-(isoindolin-2-ylmethyl)-4H-pyran-4-one]"
3,150 to 300,"CS(=O)(=O)N1CC=C(COc2coc(CN3Cc4ccccc4C3)cc2=O)CC1 [Compound 98, 2-(Isoindolin-2-ylmethyl)-5-((1-(methylsulfonyl)-1,2,3,6-tetrahydropyridin-4-yl)methoxy)-4H-pyran-4-one]"
4,150 to 300,"CCS(=O)(=O)N1CC=C(COc2coc(CN3Cc4ccccc4C3)cc2=O)CC1 [Compound 99, 5-((1-(Ethylsulfonyl)-1,2,3,6-tetrahydropyridin-4-yl)methoxy)-2-(isoindolin-2-ylmethyl)-4H-pyran-4-one]"

# Second part, the compound before the results:
row,SMILES,IC50 [nM]
1,"CS(=N)(=O)c1ccc(COc2coc(CN3Cc4ccccc4C3)cc2=O)cc1 (centres unmarked) [Compound 86, 2-(Isoindolin-2-ylmethyl)-5-((4-(S-methylsulfonimidoyl)benzyl)oxy)-4H-pyran-4-one]",150 to 300
2,"CS(=N)(=O)c1ccc(COc2coc(CN3CCc4ccccc4C3)cc2=O)cc1 (centres unmarked) [Compound 87, 2-((3,4-Dihydroisoquinolin-2(1H)-yl)methyl)-5-((4-(S-methylsulfonimidoyl)-benzyl)oxy)-4H-pyran-4-one]",301 to 2000
3,"CS(=N)(=O)c1ccc(COc2coc(CN3Cc4ccc(F)cc4C3)cc2=O)cc1 (centres unmarked) [Compound 88, 2-((5-Fluoroisoindolin-2-yl)methyl)-5-((4-(S-methylsulfonimidoyl)benzyl)oxy)-4H-pyran-4-one]",150 to 300
4,"CS(=N)(=O)c1ccc(COc2coc(CN3Cc4ccc(C(F)(F)F)cc4C3)cc2=O)cc1 (centres unmarked) [Compound 89, 5-((4-(S-Methylsulfonimidoyl)benzyl)oxy)-2-((5-(trifluoromethyl)isoindolin-2-yl)methyl)-4H-pyran-4-one]",< 150
5,"CS(=N)(=O)c1ccc(COc2coc(CN3Cc4ccc(OC(F)(F)F)cc4C3)cc2=O)cc1 (centres unmarked) [Compound 90, 5-((4-(S-Methylsulfonimidoyl)benzyl)oxy)-2-((5-(trifluoromethoxy)isoindolin-2-yl)methyl)-4H-pyran-4-one]",< 150
6,"CC(c1cc(=O)c(OCc2ccc(S(C)(=N)=O)cc2)co1)N1Cc2ccccc2C1 (centres unmarked) [Compound 91, 2-(1-(Isoindolin-2-yl)ethyl)-5-((4-(S-methylsulfonimidoyl)benzyl)oxy)-4H-pyran-4-one]",< 150
7,"CN=S(C)(=O)c1ccc(COc2coc(CN3Cc4ccccc4C3)cc2=O)cc1 (centres unmarked) [Compound 92, 5-((4-(N,S-Dimethylsulfonimidoyl)benzyl)oxy)-2-(isoindolin-2-ylmethyl)-4H-pyran-4-one]",< 150
8,"Cc1ccc(S(=O)(=O)N=S(C)c2ccc(COc3coc(CN4Cc5ccccc5C4)cc3=O)cc2)cc1 (centres unmarked) [Compound 93, N-{[4-({[6-(1,3-dihydro-2H-isoindol-2-ylmethyl)-4-oxo-4H-pyran-3-yl]oxy}-methyl)phenyl](methyl)-λ^4-sulfanylidene}-4-methylbenzenesulfonamide]",< 150
9,"CC(=O)N=S(C)(=O)c1ccc(COc2coc(CN3Cc4ccccc4C3)cc2=O)cc1 (centres unmarked) [Compound 94, N-{[4-({[6-(1,3-dihydro-2H-isoindol-2-ylmethyl)-4-oxo-4H-pyran-3-yl]oxy}-methyl)phenyl](methyl)oxido-λ^6-sulfanylidene}]",150 to 300
10,"O=C(c1ccc(COc2coc(CN3Cc4ccccc4C3)cc2=O)c(F)c1)N1CCC1 [Compound 95, 5-((4-(Azetidine-1-carbonyl)-2-fluorobenzyl)oxy)-2-(isoindolin-2-ylmethyl)-4H-pyran-4-one]",< 150
